{"source": "paper PMC9090410", "about": "(Journal of Enzyme Inhibition and Medicinal Chemistry, 2022)", "key": {"[1]": {"system": "HDACs from HeLa cell lysates", "type": "biochemical", "settings": "for IC50: HeLa cell extract, fluorometric assay, incubating for 8 h, standard deviation in parentheses, read-out: HeLa Cell Lysate IC50", "experimental": "(§1) Once prepared, the compounds were screened for inhibition of HDAC activity from the cell lysates of HeLa cells and the recombinant isoforms HDAC3 and HDAC8. […]\n(§2) then added followed by further incubation for 10 min at 25 °C. The enzyme activities was measured based on the fluorescence intensity at excitation 350-380 nm and emission 440-480 nm in a plate reader. A control set of data without the presence of inhibitor was acquired using 45 µL of buffer.\n(§3) Inhibitors 1-7 were screened using a commercially available In Situ Histone Deacetylase Activity […]\n(§4) divergence being the 8 hr incubation time."}, "Recombinant HDAC 3": {"target": "T1, Recombinant HDAC 3 (Homo sapiens, UniProt O15379)", "T1 construct": "purchased not specified (Fisher Scientific, Sigma-Aldrich or Chem-Impex are named for all reagents)", "T1 sequence (O15379 whole entry)": "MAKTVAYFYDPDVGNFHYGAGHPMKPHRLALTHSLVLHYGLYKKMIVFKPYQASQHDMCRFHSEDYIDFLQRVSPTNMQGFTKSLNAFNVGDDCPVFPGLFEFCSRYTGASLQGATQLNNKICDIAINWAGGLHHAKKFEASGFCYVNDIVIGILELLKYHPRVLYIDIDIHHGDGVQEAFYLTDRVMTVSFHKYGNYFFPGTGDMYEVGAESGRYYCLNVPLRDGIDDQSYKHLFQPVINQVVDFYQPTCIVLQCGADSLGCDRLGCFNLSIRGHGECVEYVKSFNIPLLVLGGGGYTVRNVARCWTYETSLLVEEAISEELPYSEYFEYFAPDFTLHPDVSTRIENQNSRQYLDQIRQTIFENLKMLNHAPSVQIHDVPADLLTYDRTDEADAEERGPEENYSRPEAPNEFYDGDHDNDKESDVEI", "T1 sequence (Q9Y618 395-489 partner limits assumed)": "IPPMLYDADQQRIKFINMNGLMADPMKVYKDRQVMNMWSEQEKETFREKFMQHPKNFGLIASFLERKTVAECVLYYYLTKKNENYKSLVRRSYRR", "test": "Recombinant HDAC3 inhibition, fluorometric assay, 8 h incubation", "type": "biochemical", "settings": "for IC50: recombinant HDAC3, fluorometric assay, incubating for 8 h, standard deviation in parentheses", "experimental": "as §1, §2, §3, §4"}, "Recombinant HDAC 8": {"target": "T2, Recombinant HDAC 8 (Homo sapiens, UniProt Q9BY41)", "T2 construct": "purchased not specified (Fisher Scientific, Sigma-Aldrich or Chem-Impex are named for all reagents)", "T2 sequence (Q9BY41 1-377)": "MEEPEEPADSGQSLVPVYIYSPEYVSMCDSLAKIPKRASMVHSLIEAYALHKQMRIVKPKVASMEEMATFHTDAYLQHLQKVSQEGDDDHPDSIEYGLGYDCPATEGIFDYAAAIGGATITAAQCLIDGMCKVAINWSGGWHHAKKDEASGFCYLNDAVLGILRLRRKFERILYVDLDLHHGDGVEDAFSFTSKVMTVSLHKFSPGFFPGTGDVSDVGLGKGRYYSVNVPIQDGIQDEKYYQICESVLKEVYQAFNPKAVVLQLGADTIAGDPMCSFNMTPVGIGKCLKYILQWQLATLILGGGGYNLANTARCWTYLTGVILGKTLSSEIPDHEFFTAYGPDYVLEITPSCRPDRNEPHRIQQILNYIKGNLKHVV", "test": "Recombinant HDAC8 inhibition, fluorometric assay, 8 h incubation", "type": "biochemical", "settings": "for IC50: recombinant HDAC8, fluorometric assay, incubating for 8 h, standard deviation in parentheses", "experimental": "as §1, §2, §3, §4"}, "HeLa cell lysates": {"system": "HeLa cell lysates", "settings": "10 h incubation time; ref Kapustin et al. (23); read-out: IC50 Hela cell lysate; cited from earlier work"}, "[2]": {"settings": "time course enzyme inhibition assay, inhibitor at 100 μM"}}}
{"smiles": "O=C(CCCCCCOP(=O)(O)O)Nc1ccccc1", "note": "[Compound 6]", "values": [{"measurement": "IC50", "setting": "[1]", "result": 3900, "unit": "µM"}]}
{"smiles": "O=C(CCCCCOP(=O)(O)O)Nc1ccccc1", "note": "[Compound 5]", "values": [{"measurement": "IC50", "setting": "Recombinant HDAC 3", "result": 690, "unit": "µM"}, {"measurement": "IC50", "setting": "[1]", "result": 60, "unit": "µM"}, {"measurement": "IC50", "setting": "Recombinant HDAC 8", "result": 179, "unit": "µM"}]}
{"smiles": "CP(=O)(O)CCCCCC(=O)Nc1ccccc1", "note": "[PA3]", "values": [{"measurement": "IC50", "setting": "HeLa cell lysates", "result": 6100, "unit": "µM"}]}
{"smiles": "O=C(CCCCCOP(O)(O)=S)Nc1ccccc1", "note": "[Compound 7]", "values": [{"measurement": "IC50", "setting": "Recombinant HDAC 3", "result": 103, "unit": "µM"}, {"measurement": "IC50", "setting": "[1]", "result": 50, "unit": "µM"}, {"measurement": "IC50", "setting": "Recombinant HDAC 8", "result": 49, "unit": "µM"}]}
{"smiles": "O=C(CCCCCNP(=O)(O)O)Nc1ccccc1", "note": "[Compound 2]", "values": [{"measurement": "IC50", "setting": "Recombinant HDAC 3", "result": 240, "unit": "µM"}, {"measurement": "Incubation time of optimal inhibition, HDAC 3", "setting": "Recombinant HDAC 3; [2]", "result": 4, "unit": "h"}, {"measurement": "IC50", "setting": "[1]", "result": 70, "unit": "µM"}, {"measurement": "Incubation time of optimal inhibition, HeLa cell lysate", "setting": "[1]; [2]", "result": 8, "unit": "h"}, {"measurement": "IC50", "setting": "Recombinant HDAC 8", "result": 129, "unit": "µM"}, {"measurement": "Incubation time of optimal inhibition, HDAC 8", "setting": "Recombinant HDAC 8; [2]", "result": 8, "unit": "h"}]}
{"smiles": "O=C(CCCCOP(=O)(O)O)Nc1ccccc1", "note": "[Compound 4]", "values": [{"measurement": "IC50", "setting": "[1]", "result": 2200, "unit": "µM"}]}
